# Molecular target: dA (isolated discontinuous domain A of LAO) (Salmonella enterica, UniProt P02911, DEL114-206)
# Assay: biochemical
smiles,measurement,value
N=C(N)NCCC[C@H](N)C(=O)O [L-arginine],Kd,131 µM
